Measured values as given in patent US6498159B1, “Phthalazine derivatives and remedies for erectile dysfunction” (Eisai Co., Ltd., priority 1998, dated 2002).

Tests used:
[1] = molecular target: PDE5 (Sus scrofa, UniProt A0A287B475); assay: Inhibitory action on the enzyme cGMP-PDE obtained from porcine platelets; format: biochemical; details: 1 μM cGMP substrate, 1 mM EGTA, read-out: PDE 5 IC50
Protocol: 1) Inhibitory Action on the Enzyme cGMP-PDE Obtained from Porcine Platelets
The inhibitory activity of a test compound on the enzyme cGMP-PDE prepared from porcine platelets was determined by adding a solution of the test compound dissolved in DMSO to a reaction solution, where 1 μM cGMP was used as the substrate in the presence of 1 mM EGTA in accordance with a method of Tompson et al. The final concentration of DMSO in the reaction solution was 1% or less. Preparation of cGMP-PDE was conducted as follows. Porcine platelets were added to buffer A (20 mM Tris/HCl, 2 mM magnesium acetate, 10 mM 2-mercaptoethanol, 0.1 mM EGTA; pH 7.4), and then sonicated. The resulting suspension was centrifuged at 100,000×g for 60 min, and the resulting supernatant was subjected to a column (DEAE-Toyopearl 650S produced by Tosoh, Tokyo, Japan). After the column was washed with buffer A, the enzyme was eluted with a gradient of from 0.075 to 0.25 M NaCl in buffer A to give a CGMP-PDE fraction. The resulting fraction was dialyzed, concentrated and stored.

[2] = test system: penile cavernosum preparation removed from a rabbit; assay: Augmenting action of PDE5 inhibitor on the relaxation by nitroprusside of the penile cavernosum preparation removed from a rabbit; details: for EC50: Oryctolagus cuniculus, compound concentration at which the contraction caused by phenylephrine is relaxed by 50%, regression analysis on relaxation curve, duplicate; for Relaxation ratio (%): after nitroprusside (300 μM), phenylephrine contraction, mean of duplicate
Protocol: 2) Augmenting Action of the PDE5 Inhibitor on the Relaxing Action of Nitroprusside on a Penile Cavernosum Preparation Removed from a Rabbit
The penis was removed from a NZW white rabbit (about 3 kg) killed by intravenous administration of pentobarbital (50 mg/kg). After removal, the cavernosum was exposed by removal of surrounding tissues such as albuginea to give a preparation (about 10×1.5×1.5 mm). This preparation was suspended on a Magnus tube filled up with 10 ml Krebs-Henseleit's nutritive solution (118.4 mM NaCl, 4.7 mM KCl, 2.5 mM CaCl2, 1.3 mM MgSO4, 1.2 mM KH2PO4, 25.0 mM NaHCO3, 11.0 mM glucose, 0.026 mM EDTA and 0.001 mM indomethacin) at 37° C., and a gas mixture (95% oxygen+5% carbon dioxide) was bubbled thereinto. Then, the isometric tension was recorded under a load of 2 g. To stabilize the contraction, contraction caused by adding a potassium chloride solution (final concentration: 100 mM) and washing were repeated twice, and further, contraction by adding phenylephrine (final concentration: 10 μM) and washing were also conducted.
It was filled up again with 10 ml Krebs-Henseleit's solution, and L-N^G-nitroarginine methyl ester (final concentration: 100 μM) was added to inhibit the formation of endogenous nitrogen monoxide. Contraction was caused by adding phenylephrine (final concentration: 10 μM), and a chemical solution was added thereto at a final concentration of 3, 30 or 300 nM. Dimethyl sulfoxide was used as the medium in this reaction. 15 min after the chemical was added, nitroprusside (final concentration: 300 μM) was added to relax the preparation. Further, papaverine (final concentration: 100 μM) was added to determine the maximum relaxation.
After the experiment, the tension generated upon adding papaverine was used as the base line, and the relaxation of the preparation by adding nitroprusside was recorded on a chart by using a DEGIMATIC CALIPER to determine the degree of relaxation.
Values in the table indicate relaxation ratio (%) after nitroprusside was added to the preparation pretreated with the 3, 30 and 300 nM compound, and the mean in a duplicate experiment was recorded. Further, the EC50 value indicates the compound concentration at which the contraction caused by phenylephrine is relaxed by 50%, and this value was calculated by regression analysis on a relaxation curve in the duplicate experiment.

[3] = preparation pretreated with 3 nM compound
[4] = preparation pretreated with 30 nM compound
[5] = preparation pretreated with 300 nM compound

Compound	IC50 [1] [nM]	EC50 [2] [nM]	Relaxation ratio (%) [2, 3] [%]	Relaxation ratio (%) [2, 4] [%]	Relaxation ratio (%) [2, 5] [%]
COc1ccc(CNc2nnc(N3CCC(C(F)CO)CC3)c3ccc(C#N)cc23)cc1Cl.Cl (stereo not drawn) [Example 36, 4-[(3-Chloro-4-methoxybenzyl)amino]-1-(4-[1-fluoro-2-hydroxyethyl)piperidino]-6-phthalazinecarbonitrile Hydrochloride]	0.25	3.5	35.0	60.8	54.8
COc1ccc(CNc2nnc(N3CCC4(CC3)CC(O)C4)c3ccc(C#N)cc23)cc1Cl.Cl [Example 9, 4-[(3-Chloro-4-methoxybenzyl)amino]-1-(2-hydroxy-7-azaspiro[3.5]non-7-yl)-6-phthalazinecarbonitrile Hydrochloride]	0.54	2	56.6	77.7	79.6
COc1ccc(CNc2nnc(N3CCC(OCCO)CC3)c3ccc(C#N)cc23)cc1Cl.Cl [Example 37, 4-[(3-Chloro-4-methoxybenzyl)amino]-1-[4-(2-hydroxyethoxy)piperidino]-6-phthalazinecarbonitrile Hydrochloride]	–	29.3	33.4	50.1	56.0

Now from value to compound, other results behind:

IC50 [1] [nM]	EC50 [2] [nM]	Compound	Relaxation ratio (%) [2, 3] [%]	Relaxation ratio (%) [2, 4] [%]	Relaxation ratio (%) [2, 5] [%]
0.23	0.7	COc1ccc(CNc2nnc(N3CCC(O)CC3)c3ccc(C#N)cc23)cc1Br.Cl [Example 77, 4-[(3-Bromo-4-methoxybenzyl)amino]-1-(4-hydroxypiperidino)-6-phthalazinecarbonitrile Hydrochloride]	58.8	71.7	80.6
–	3	COc1ccc(CNc2nnc(N3CCC(O)CC3)c3ccc(C#N)cc23)cc1C.Cl [Example 86, 1-(4-Hydroxypiperidino)-4-[(4-methoxy-3-methylbenzyl)amino]-6-phthalazinecarbonitrile Hydrochloride]	50.2	70.2	71.5
0.89	3	COc1ccc(CNc2nnc(N3CCC(F)(CO)CC3)c3ccc(C#N)cc23)cc1C.Cl [Example 88, 1-[4-Fluoro-4-(hydroxymethyl)piperidino]-4-[(4-methoxy-3-methylbenzyl)amino]-6-phthalazinecarbonitrile Hydrochloride]	50.0	67.5	75.0
0.5	2.8	COc1ccc(CNc2nnc(N3CCC(F)(CO)CC3)c3ccc(C#N)cc23)cc1Br.Cl [Example 83, 4-[(3-Bromo-4-methoxybenzyl)amino]-1-[4-fluoro-4-(hydroxymethyl)piperidino]-6-phthalazinecarbonitrile Hydrochloride]	50.6	67.3	69.9
